The source of these data is patent US12252524B2, “GIP/GLP1 co-agonist compounds” (Eli Lilly and Company, priority 2018, dated 2025).

In one test the target is T1, human GIP receptor (Homo sapiens, UniProt P48546).
T1 construct: expressed in transfected cells; crude membranes
T1 sequence (P48546 22-466): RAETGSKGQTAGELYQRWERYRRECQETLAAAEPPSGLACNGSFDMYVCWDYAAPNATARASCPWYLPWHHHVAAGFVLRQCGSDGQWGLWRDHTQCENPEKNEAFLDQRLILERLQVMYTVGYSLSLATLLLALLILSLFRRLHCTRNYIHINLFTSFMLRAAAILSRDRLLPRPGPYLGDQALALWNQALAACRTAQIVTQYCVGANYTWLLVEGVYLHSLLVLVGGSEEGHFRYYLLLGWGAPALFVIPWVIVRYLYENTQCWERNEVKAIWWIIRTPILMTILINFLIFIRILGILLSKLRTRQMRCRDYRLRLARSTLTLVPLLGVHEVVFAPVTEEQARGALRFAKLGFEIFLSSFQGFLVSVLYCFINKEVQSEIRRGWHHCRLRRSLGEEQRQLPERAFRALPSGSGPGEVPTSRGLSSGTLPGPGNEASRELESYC
The test can be described thus: [125I]-GIP binding (SPA), human GIP receptor. Particulars: read-out: hGIPR Ki, nM (SEM, n).

In test [1] the target is human GLP-1 receptor (GLP-1R) (Homo sapiens, UniProt P43220). The test can be described thus: cAMP pharmacological functional assay in presence of casein, hGLP-1R. Type of test: cell-based. Particulars: HEK293 cells expressing hGLP-1R, 0.1% Casein, geometric mean; read-out: hGLP1R cAMP Rel EC50 nM (SEM, n).
Chain of human GLP-1 receptor (GLP-1R) (P43220 24-463): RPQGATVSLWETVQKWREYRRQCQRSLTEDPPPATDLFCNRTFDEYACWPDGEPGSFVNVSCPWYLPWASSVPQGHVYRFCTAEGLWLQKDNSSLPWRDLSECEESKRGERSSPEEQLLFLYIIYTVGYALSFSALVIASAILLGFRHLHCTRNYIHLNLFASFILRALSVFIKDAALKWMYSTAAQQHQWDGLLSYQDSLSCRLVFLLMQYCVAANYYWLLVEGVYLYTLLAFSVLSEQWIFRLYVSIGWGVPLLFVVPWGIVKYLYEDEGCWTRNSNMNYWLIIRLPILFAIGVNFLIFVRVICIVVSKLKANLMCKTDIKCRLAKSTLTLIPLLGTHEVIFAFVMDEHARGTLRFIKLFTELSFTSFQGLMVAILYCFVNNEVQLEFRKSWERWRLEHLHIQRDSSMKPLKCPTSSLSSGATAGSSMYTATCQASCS
The next test deals with human GLP-1R (Homo sapiens, UniProt P43220). The test can be described thus: [125I]-GLP-1 binding (SPA), human GLP-1 receptor. The arrangement: expressed in transfected cells; crude membranes. Particulars: read-out: hGLP1R Ki, (nM) (SEM, n). The method, boiled down: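 Assay buffer: HEPES 25 mM, pH 7.4, CaCl2 2.5 mM, MgCl2 1 mM, with EDTA-free protease inhibitors. Receptor came from crude cell membranes prepared by homogenization and centrifugation at 4° C. IC50s came from four-parameter fits (maximum, minimum, IC50, Hill slope) and were expressed as Ki geometric means with SEM.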
Chain of human GLP-1R (P43220 24-463): as above

For the next test, the target named is T2, human Gcg receptor (Homo sapiens, UniProt P47871).
T2 construct: expressed in transfected cells; crude membranes
T2 sequence (P47871 26-477): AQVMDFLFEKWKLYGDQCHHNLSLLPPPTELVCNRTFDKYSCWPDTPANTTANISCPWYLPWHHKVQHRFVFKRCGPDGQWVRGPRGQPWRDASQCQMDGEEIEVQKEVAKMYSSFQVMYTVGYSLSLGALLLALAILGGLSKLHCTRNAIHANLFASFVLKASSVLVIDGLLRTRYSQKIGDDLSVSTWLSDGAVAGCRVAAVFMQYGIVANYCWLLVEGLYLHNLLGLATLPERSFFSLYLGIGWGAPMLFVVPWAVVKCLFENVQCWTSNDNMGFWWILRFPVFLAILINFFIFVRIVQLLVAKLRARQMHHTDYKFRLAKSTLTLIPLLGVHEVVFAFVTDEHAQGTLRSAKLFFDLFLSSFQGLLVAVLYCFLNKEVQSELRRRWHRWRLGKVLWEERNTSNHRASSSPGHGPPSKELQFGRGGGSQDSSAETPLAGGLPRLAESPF
The test can be described thus: [125I]-Glucagon binding (SPA), human Gcg receptor. Particulars: read-out: hGLcgR Ki, nM (SEM, n). The method, boiled down: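 Scintillation counts are taken after membranes and WGA beads incubate and settle for 12 hours at room temperature. Buffer is 25 mM HEPES, pH 7.4, with CaCl2, MgCl2, bacitracin and Tween-20. Ki values, from four-parameter IC50 fits, are geometric means over independent days.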

The target in test [2] is T3, gastric inhibitory peptide receptor (GIPR) (Homo sapiens, UniProt P48546).
T3 sequence (P48546 22-466): T1 sequence (P48546 22-466)
The test can be described thus: cAMP pharmacological functional assay in presence of casein, hGIPR. The class given is cell-based. Particulars: HEK293 cells expressing hGIPR, 0.1% Casein, geometric mean; read-out: hGIPR cAMP Rel EC50 nM (SEM, n).

Numbered stars: 1 amine (or outer) side, 2 acyl side, 3 side chain; on linkers, the order of the positions; unused ones are H or OH. Square brackets hold non-standard residues; d marks the D form. Side chains are listed from the residue outwards. Peptide text beside a SMILES is read from it. * marks the point of attachment. C20 diacid = O=C(O)CCCCCCCCCCCCCCCCCCC(=O)*; C18 diacid = O=C(O)CCCCCCCCCCCCCCCCC(=O)*; αMePhe(2-F) = C[C@](N)(Cc1ccccc1F)C(=O)O; γGlu = O=C(O)[C@H](CCC(=O)[*:2])N[*:1]; 4Pal = N[C@@H](Cc1ccncc1)C(=O)O; αMeL = CC(C)C[C@](C)(N)C(=O)O; AEEA = NCCOCCOCC(=O)O; Aib = CC(C)(N)C(=O)O

For the molecule `CC[C@H](C)[C@H](NC(=O)[C@H](CC(C)C)NC(=O)[C@H](Cc1ccc(O)cc1)NC(=O)[C@@H](CCC(=O)O)NC(=O)[C@@H](NC(=O)[C@H](Cc1ccccc1)NC(=O)[C@H](CCC(=O)O)NC(=O)C(C)(C)NC(=O)[C@H](CCC(N)=O)NC(=O)[C@H](C)NC(=O)[C@H](CCCCNC(=O)COCCOCCNC(=O)COCCOCCNC(=O)CC[C@H](NC(=O)CCCCCCCCCCCCCCCCCCC(=O)O)C(=O)O)NC(=O)[C@H](CCC(=O)O)NC(=O)[C@H](CC(=O)O)NC(=O)[C@H](CC(C)C)NC(=O)[C@](C)(CC(C)C)NC(=O)[C@@H](NC(=O)[C@H](CO)NC(=O)[C@@H](NC(=O)[C@H](CC(=O)O)NC(=O)[C@H](CO)NC(=O)[C@@H](NC(=O)[C@](C)(Cc1ccccc1F)NC(=O)[C@@H](NC(=O)CNC(=O)[C@H](CCC(=O)O)NC(=O)C(C)(C)NC(=O)[C@@H](N)Cc1ccc(O)cc1)[C@@H](C)O)[C@@H](C)O)C(C)C)[C@@H](C)CC)[C@@H](C)CC)C(=O)N[C@@H](CCC(=O)O)C(=O)NCC(=O)NCC(=O)N1CCC[C@H]1C(=O)N[C@@H](CO)C(=O)N[C@@H](CO)C(=O)NCC(=O)N[C@@H](C)C(=O)N1CCC[C@H]1C(=O)N1CCC[C@H]1C(=O)N1CCC[C@H]1C(=O)N[C@@H](CO)C(N)=O` [Example 191] (H-Y[Aib]EGT[αMePhe(2-F)]TSDVSI[αMeL]LDEK([AEEA-AEEA-γGlu-C20 diacid])AQ[Aib]EFI[dE]YLIEGGPSSGAPPPS-NH2), the Ki on human GIP receptor was determined as 0.144 nM; on human GLP-1R it was 4.52 nM; on human Gcg receptor it was 348 nM. The EC50 in test [1] came out at 0.0356 nM; in test [2] it was 0.0645 nM.

In the case of `CC[C@H](C)[C@H](NC(=O)[C@H](CC(C)C)NC(=O)[C@H](Cc1ccc(O)cc1)NC(=O)[C@@H](CCC(=O)O)NC(=O)[C@@H](NC(=O)[C@H](Cc1ccccc1)NC(=O)[C@H](CCC(=O)O)NC(=O)C(C)(C)NC(=O)[C@H](CCC(N)=O)NC(=O)[C@H](C)NC(=O)[C@H](CCCCNC(=O)COCCOCCNC(=O)COCCOCCNC(=O)CC[C@H](NC(=O)CCCCCCCCCCCCCCCCCCC(=O)O)C(=O)O)NC(=O)[C@H](CCC(=O)O)NC(=O)[C@H](CC(=O)O)NC(=O)[C@H](CC(C)C)NC(=O)[C@](C)(CC(C)C)NC(=O)[C@@H](NC(=O)[C@H](CO)NC(=O)[C@H](C)NC(=O)[C@H](CC(=O)O)NC(=O)[C@H](CO)NC(=O)[C@@H](NC(=O)[C@](C)(Cc1ccccc1F)NC(=O)[C@@H](NC(=O)CNC(=O)[C@H](CCC(=O)O)NC(=O)C(C)(C)NC(=O)[C@@H](N)Cc1ccc(O)cc1)[C@@H](C)O)[C@@H](C)O)[C@@H](C)CC)[C@@H](C)CC)C(=O)N[C@@H](CCC(=O)O)C(=O)NCC(=O)NCC(=O)N1CCC[C@H]1C(=O)N[C@@H](CO)C(=O)N[C@@H](CO)C(=O)NCC(=O)N[C@@H](C)C(=O)N1CCC[C@H]1C(=O)N1CCC[C@H]1C(=O)N1CCC[C@H]1C(=O)N[C@@H](CO)C(N)=O` [Example 192] (H-Y[Aib]EGT[αMePhe(2-F)]TSDASI[αMeL]LDEK([AEEA-AEEA-γGlu-C20 diacid])AQ[Aib]EFI[dE]YLIEGGPSSGAPPPS-NH2; N-terminus assumed), the Ki on human GIP receptor is 0.118 nM; on human GLP-1R it was 2.89 nM; at human Gcg receptor it was > 1110 nM. The EC50 in test [1] was found to be 0.0289 nM; in test [2] it was 0.0615 nM.

As for `CC[C@H](C)[C@H](NC(=O)[C@H](CC(C)C)NC(=O)[C@H](Cc1ccc(O)cc1)NC(=O)[C@@H](CCC(=O)O)NC(=O)[C@@H](NC(=O)[C@H](Cc1ccccc1)NC(=O)[C@H](CCC(=O)O)NC(=O)C(C)(C)NC(=O)[C@H](CCC(N)=O)NC(=O)[C@H](C)NC(=O)[C@H](CCCCNC(=O)COCCOCCNC(=O)COCCOCCNC(=O)CC[C@H](NC(=O)CCCCCCCCCCCCCCCCCCC(=O)O)C(=O)O)NC(=O)[C@H](CCCCN)NC(=O)[C@H](CC(=O)O)NC(=O)[C@H](CC(C)C)NC(=O)[C@](C)(CC(C)C)NC(=O)[C@@H](NC(=O)[C@H](CO)NC(=O)[C@H](Cc1ccncc1)NC(=O)[C@H](CC(=O)O)NC(=O)[C@H](CO)NC(=O)[C@@H](NC(=O)[C@](C)(Cc1ccccc1F)NC(=O)[C@@H](NC(=O)CNC(=O)[C@H](CCC(=O)O)NC(=O)C(C)(C)NC(=O)[C@@H](N)Cc1ccc(O)cc1)[C@@H](C)O)[C@@H](C)O)[C@@H](C)CC)[C@@H](C)CC)C(=O)N[C@@H](CCC(=O)O)C(=O)NCC(=O)NCC(=O)N1CCC[C@H]1C(=O)N[C@@H](CO)C(=O)N[C@@H](CO)C(=O)NCC(=O)N[C@@H](C)C(=O)N1CCC[C@H]1C(=O)N1CCC[C@H]1C(=O)N1CCC[C@H]1C(=O)N[C@@H](CO)C(N)=O` [Example 203] (H-Y[Aib]EGT[αMePhe(2-F)]TSD[4Pal]SI[αMeL]LDKK([AEEA-AEEA-γGlu-C20 diacid])AQ[Aib]EFI[dE]YLIEGGPSSGAPPPS-NH2; N-terminus assumed), the inhibitory constant (Ki) worked out at 0.0337 nM at human GIP receptor, 3.9 nM on human GLP-1R and 845 nM at human Gcg receptor. Besides, the results for the EC50 in test [1] and in test [2] were 0.0679 nM and 0.0387 nM, respectively.

With `CC[C@H](C)[C@H](NC(=O)[C@H](CC(C)C)NC(=O)[C@H](Cc1ccc(O)cc1)NC(=O)[C@@H](CCC(=O)O)NC(=O)[C@@H](NC(=O)[C@H](Cc1ccccc1)NC(=O)[C@H](CCC(=O)O)NC(=O)C(C)(C)NC(=O)[C@H](CCC(N)=O)NC(=O)[C@H](C)NC(=O)[C@H](CCCCNC(=O)COCCOCCNC(=O)COCCOCCNC(=O)CCCCCCCCCCCCCCCCC(=O)O)NC(=O)[C@H](CCC(=O)O)NC(=O)[C@H](CC(=O)O)NC(=O)[C@H](CC(C)C)NC(=O)[C@](C)(CC(C)C)NC(=O)[C@@H](NC(=O)[C@H](CO)NC(=O)[C@H](Cc1ccncc1)NC(=O)[C@H](CC(=O)O)NC(=O)[C@H](CO)NC(=O)[C@@H](NC(=O)[C@](C)(Cc1ccccc1F)NC(=O)[C@@H](NC(=O)CNC(=O)[C@H](CCC(=O)O)NC(=O)C(C)(C)NC(=O)[C@@H](N)Cc1ccc(O)cc1)[C@@H](C)O)[C@@H](C)O)[C@@H](C)CC)[C@@H](C)CC)C(=O)N[C@@H](CCC(=O)O)C(=O)NCC(=O)NCC(=O)N1CCC[C@H]1C(=O)N[C@@H](CO)C(=O)N[C@@H](CO)C(=O)NCC(=O)N[C@@H](C)C(=O)N1CCC[C@H]1C(=O)N1CCC[C@H]1C(=O)N1CCC[C@H]1C(=O)N[C@@H](CO)C(N)=O` [Example 205] (H-Y[Aib]EGT[αMePhe(2-F)]TSD[4Pal]SI[αMeL]LDEK([AEEA-AEEA-C18 diacid])AQ[Aib]EFI[dE]YLIEGGPSSGAPPPS-NH2; N-terminus assumed), the figures for the Ki on human GIP receptor, on human GLP-1R and on human Gcg receptor were 0.0367 nM, 3.05 nM and 438 nM, respectively. Moreover, the EC50 in test [1] stood at 0.0261 nM; in test [2] it was 0.0281 nM.
